The record followed here is paper PMC12040169 (PLOS Biology, 2025).

By viability is commonly meant a read-out of living cells in per cent, often relative to untreated cells.

The nature of the data set: in vitro. The following applies: human, hela cells, % viability.
On to `COC1C(O)C(CO)OC1n1cc(I)c(N)nc1=O` (centres unmarked) [CBK201296], for which the viability at 28.5 h, 10 µM is 92.2%.

Take `Nc1nc2c(nc(O)n2[C@@H]2O[C@H](CO)[C@H](O)C2O)c(=O)[nH]1` (some centres unmarked) [CBK201297]: the viability at 28.5 h, 10 µM amounted to 88.5%.

For the molecule `Cc1cc2cn([C@H]3C[C@@H](O)[C@@H](CO)O3)c(=O)nc2[nH]1` [CBK201302], the viability at 28.5 h, 10 µM was determined as 100%. The result for `O=c1[nH]c(=O)n([C@@H]2O[C@H](CO)[C@H](O)C2O)cc1I` (some centres unmarked) [CBK201304] reads 94.6%; that for `CNc1ncnc2c1ncn2C1CC(O)C(CO)O1` (centres unmarked) [CBK201308], 96.7%. The result for `O=C(/C=C/c1cn(C2CC(O)C(CO)O2)c(=O)[nH]c1=O)NCCCCCCNC(=O)C(F)(F)F` (centres unmarked) [CBK201310] reads 94.3%; that for `CCNc1ccn([C@H]2C[C@@H](O)[C@@H](CO)O2)c(=O)n1` [CBK201311], 95.2%. For `CNc1nc2c(ncn2C2CC(O)C(CO)O2)c(=O)[nH]1` (centres unmarked) [CBK201312], the viability at 28.5 h, 10 µM was determined as 100%. The result for `O=c1[nH]c(=O)n([C@H]2C[C@@H](O)[C@@H](CO)O2)cc1O` [CBK201317] reads 101%. The result for `Nc1ncc2ncn([C@@H]3O[C@H](CO)[C@H](O)C3O)c2n1` (some centres unmarked) [CBK201318] reads 92.8%; that for `Cc1cn2c(=O)c3ncn([C@H]4C[C@@H](O)[C@@H](CO)O4)c3nc2[nH]1` [CBK201320], 86.6%. The result for `Nc1ncnc2c1c(I)cn2[C@@H]1O[C@H](CO)[C@H](O)C1O` (some centres unmarked) [CBK201321] reads 16.5%; that for `Nc1nc(N)c([C@H]2C[C@@H](O)[C@@H](CO)O2)nc1Cl` [CBK201326], 103%. Take `Cc1cn([C@H]2C[C@@H](O)[C@@H](CO)O2)c(N)nc1=O` [CBK201327]: the viability at 28.5 h, 10 µM was 100%. The result for `COC1C(O)C(CO)OC1n1cnc2c(=O)[nH]cnc21` (centres unmarked) [CBK201328] reads 91.3%; that for `O=c1[nH]c(=O)c2ccn([C@H]3C[C@@H](O)[C@@H](CO)O3)c2[nH]1` [CBK201331], 99%; that for `O=c1[nH]c(=O)n([C@H]2C[C@@H](O)[C@@H](CO)O2)cc1CO` [CBK201332], 94%. The result for `COC(=O)/C=C/c1cn(C2OC(CO)C(O)C2O)c(=O)[nH]c1=O` (centres unmarked) [CBK201339] reads 106%; that for `O=C(O)C1CCN(C(=O)Cc2c[nH]c3ccccc23)CC1` [CBK202747], 82.7%.

Regarding `COc1cccc(N2CCN(CC(=O)N3CCC(C(N)=O)CC3)CC2)c1` [CBK202881], the viability at 28.5 h, 10 µM was 106%. The result for `O=C(NCC1CCCO1)C1CCCN(C(=O)c2cc(-c3ccccn3)[nH]n2)C1` (centres unmarked) [CBK210893] reads 91.7%; that for `CN(C)CCCNC(=O)C1CCN(c2nc3c(-c4ccccc4F)csc3c(=O)[nH]2)CC1` [CBK215438], 93.7%. The result for `O=C(NCCN1CCOCC1)C1CCN(c2nc3c(-c4ccccc4F)csc3c(=O)[nH]2)CC1` [CBK215442] reads 104%; that for `COc1cccc(CNC(=O)C2CCCN(c3nc4c(-c5ccccc5)csc4c(=O)[nH]3)C2)c1` (centres unmarked) [CBK215463], 99.8%; that for `O=C(NCc1ccncc1)C1CCCN(c2nc3c(-c4ccccc4)csc3c(=O)[nH]2)C1` (centres unmarked) [CBK215493], 107%. As for `COCCNC(=O)C1CCCN(c2nc3c(-c4ccccc4)csc3c(=O)[nH]2)C1` (centres unmarked) [CBK215497], the figure is 114%.

For `COCCCNC(=O)C1CCCN(c2nc3c(-c4ccccc4)csc3c(=O)[nH]2)C1` (centres unmarked) [CBK215498], the viability at 28.5 h, 10 µM worked out at 94%.

Consider `CN(C)CCNC(=O)C1CCCN(c2nc3c(-c4ccccc4)csc3c(=O)[nH]2)C1` (centres unmarked) [CBK215501], for which the viability at 28.5 h, 10 µM was 88.3%. As for `CN(C)CCCNC(=O)C1CCCN(c2nc3c(-c4ccccc4)csc3c(=O)[nH]2)C1` (centres unmarked) [CBK215504], the figure is 94.6%.
